Calls of active or inactive are those of the source. The calls are words filed in the database; no cut-off is given here. Where only a bound is given, the exact number is not on record here.

The term IC50 denotes the concentration that gives 50% inhibition. What is called logD is the decadic logarithm of the distribution of all forms, ionised or not, between an organic phase and buffer at a given pH. One may read the logP as a log measure of how a compound divides between an organic and an aqueous phase. A word on the inhibition in vivo: it is the share of the control response that was lost under treatment. For orientation: half-life means how long it takes for the measured level to halve. As usually defined, the clearance is a measure of how efficiently the substance is removed, as volume per time.

In data set [1] the target is T1, RAC-alpha serine/threonine-protein kinase (Homo sapiens, UniProt P31749). Put plainly: Inhibition of Akt1 by cell-based assay.
T1 sequence (P31749 whole entry): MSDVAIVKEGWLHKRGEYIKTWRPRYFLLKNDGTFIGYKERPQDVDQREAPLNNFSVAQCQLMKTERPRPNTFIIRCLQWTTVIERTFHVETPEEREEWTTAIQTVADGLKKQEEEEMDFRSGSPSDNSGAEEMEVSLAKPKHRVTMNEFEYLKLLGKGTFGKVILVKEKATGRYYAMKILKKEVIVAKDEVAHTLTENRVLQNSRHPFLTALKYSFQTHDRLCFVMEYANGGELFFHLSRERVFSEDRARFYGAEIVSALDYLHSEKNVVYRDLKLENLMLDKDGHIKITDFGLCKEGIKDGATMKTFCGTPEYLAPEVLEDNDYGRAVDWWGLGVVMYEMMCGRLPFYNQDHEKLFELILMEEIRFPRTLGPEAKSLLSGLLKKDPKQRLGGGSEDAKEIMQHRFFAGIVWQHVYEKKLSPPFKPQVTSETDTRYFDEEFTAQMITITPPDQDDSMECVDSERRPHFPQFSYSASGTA
Data set [2] is described as follows: Inhibition of PKA.
Data set [3] addresses T2, RAC-beta serine/threonine-protein kinase (Homo sapiens, UniProt P31751). As to the kind of experiment: Inhibition of Akt2.
Data set [4] is described as follows: Inhibition of SGK.
Data set [5] deals with T2, RAC-beta serine/threonine-protein kinase. Put plainly: Inhibition of Akt2 by cell-based assay.
For data set [6], the target named is T1, RAC-alpha serine/threonine-protein kinase. As to the kind of experiment: Inhibition of Akt1.
A short description of data set [7]: Inhibition of PKC.
The target in data set [8] is RAC-gamma serine/threonine-protein kinase (Homo sapiens, UniProt Q9Y243). As to the kind of experiment: Inhibition of Akt3.
Sequence of RAC-gamma serine/threonine-protein kinase (Q9Y243 whole entry): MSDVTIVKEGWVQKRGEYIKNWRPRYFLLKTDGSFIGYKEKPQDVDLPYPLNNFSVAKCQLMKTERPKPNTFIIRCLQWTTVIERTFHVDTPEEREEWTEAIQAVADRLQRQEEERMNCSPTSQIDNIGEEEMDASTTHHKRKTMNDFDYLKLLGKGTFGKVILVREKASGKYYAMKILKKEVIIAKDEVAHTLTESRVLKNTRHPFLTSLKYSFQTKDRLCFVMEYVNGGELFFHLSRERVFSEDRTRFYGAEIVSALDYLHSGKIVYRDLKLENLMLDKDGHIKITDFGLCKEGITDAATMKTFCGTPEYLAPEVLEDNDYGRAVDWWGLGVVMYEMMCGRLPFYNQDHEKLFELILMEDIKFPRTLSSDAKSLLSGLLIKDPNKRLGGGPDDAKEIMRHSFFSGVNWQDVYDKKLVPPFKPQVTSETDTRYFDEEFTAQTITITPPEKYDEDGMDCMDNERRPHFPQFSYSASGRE
Data set [9] is described as follows: Distribution coefficient, log D of the compound. Type of data set: physicochemical. As to conditions: octanol/water.
For data set [10], the system named is Mus musculus. As to the kind of experiment: Inhibition of Akt1 in mouse lung at 50 mg/kg, ip administered three times a day after 24 hrs by IP kinase assay. Type of data set: functional. Further details: scale not given: the % may be the effect or the level left. As to conditions: route intraperitoneal.
Data set [11] can be described thus: Drug concentration in mouse blood at 50 mg/kg, ip administered three times a day after 10 hrs. Type of data set: ADME, organism-based. On the set-up: dose 50 mg/kg, route intraperitoneal. To be noted: whole blood, read-out: Drug uptake.
The subject of data set [12] is Mus musculus. As to the kind of experiment: Inhibition of Akt1 in mouse lung at 50 mg/kg, ip administered three times a day after 10 hrs by IP kinase assay. Type of data set: functional. Further details: scale not given: the % may be the effect or the level left. To be noted: route intraperitoneal.
Data set [13] is described as follows: Partition coefficient, log P of the compound. To be noted: octanol/water. Type of data set: physicochemical.
Data set [14] deals with Mus musculus. As to the kind of experiment: Inhibition of AKT2 in A2780 cells xenografted mouse lung tissue at 50 mg/kg, twice daily after 2 hrs by IP kinase assay. Type of data set: functional. As to conditions: route intraperitoneal.
Data set [15] has as its system Mus musculus. As to the kind of experiment: Inhibition of Akt2 in mouse lung at 50 mg/kg, ip administered three times a day after 24 hrs by IP kinase assay. Type of data set: functional. On the set-up: scale not given: the % may be the effect or the level left. To be noted: route intraperitoneal.
A short description of data set [16]: Drug concentration in mouse blood at 50 mg/kg, ip administered three times a day after 24 hrs. Type of data set: ADME, organism-based. Further details: dose 50 mg/kg, route intraperitoneal. As to conditions: whole blood, read-out: Drug uptake.
The next data set relates to A2780. Put plainly: Antitumor activity in human A2780 cells xenografted mouse assessed as decrease in tumor weight at 50 mg/kg, sc administered three times a day twice a week for five cycles. Type of data set: functional, organism-based. Further details: dose 50 mg/kg.
Data set [17] has as its system Mus musculus. Put plainly: Inhibition of AKT2 in A2780 cells xenografted mouse tumor tissue at 50 mg/kg, twice daily after 2 hrs by IP kinase assay. To be noted: route intraperitoneal. Type of data set: functional.
Data set [18] is described as follows: Half life in rat. Type of data set: ADME, organism-based. To be noted: in vivo.
The subject of data set [19] is Mus musculus. As to the kind of experiment: Inhibition of Akt2 in mouse lung at 50 mg/kg, ip administered three times a day after 16 hrs by IP kinase assay. Type of data set: functional. On the set-up: scale not given: the % may be the effect or the level left. To be noted: route intraperitoneal.
Data set [20] deals with Mus musculus. As to the kind of experiment: Inhibition of AKT1 in A2780 cells xenografted mouse tumor tissue at 50 mg/kg, twice daily after 2 hrs by IP kinase assay. Type of data set: functional. To be noted: route intraperitoneal.
Data set [21] is described as follows: Drug concentration in mouse blood at 50 mg/kg, ip administered three times a day after 16 hrs. Further details: dose 50 mg/kg, route intraperitoneal. As to conditions: whole blood, read-out: Drug uptake. Type of data set: ADME, organism-based.
The species named for a further data set is Homo sapiens. As to the kind of experiment: Protein binding in human plasma. To be noted: read-out: PB (converted).
Data set [22] can be described thus: Clearance in rat. To be noted: in vivo. Type of data set: ADME, organism-based.
Data set [23] has as its system Mus musculus. Put plainly: Inhibition of AKT1 in A2780 cells xenografted mouse lung tissue at 50 mg/kg, twice daily after 2 hrs by IP kinase assay. To be noted: route intraperitoneal. Type of data set: functional.
Data set [24] concerns Mus musculus. As to the kind of experiment: Inhibition of Akt1 in mouse lung at 50 mg/kg, ip administered three times a day after 16 hrs by IP kinase assay. Type of data set: functional. Further details: scale not given: the % may be the effect or the level left. As to conditions: route intraperitoneal.
In data set [25] the test system is Mus musculus. Put plainly: Inhibition of Akt2 in mouse lung at 50 mg/kg, ip administered three times a day after 10 hrs by IP kinase assay. Type of data set: functional. Further details: scale not given: the % may be the effect or the level left. To be noted: route intraperitoneal.
The target in data set [26] is Voltage-gated inwardly rectifying potassium channel KCNH2 (Homo sapiens, UniProt Q12809). Put plainly: Inhibition of human ERG.
Sequence of Voltage-gated inwardly rectifying potassium channel KCNH2 (Q12809 whole entry): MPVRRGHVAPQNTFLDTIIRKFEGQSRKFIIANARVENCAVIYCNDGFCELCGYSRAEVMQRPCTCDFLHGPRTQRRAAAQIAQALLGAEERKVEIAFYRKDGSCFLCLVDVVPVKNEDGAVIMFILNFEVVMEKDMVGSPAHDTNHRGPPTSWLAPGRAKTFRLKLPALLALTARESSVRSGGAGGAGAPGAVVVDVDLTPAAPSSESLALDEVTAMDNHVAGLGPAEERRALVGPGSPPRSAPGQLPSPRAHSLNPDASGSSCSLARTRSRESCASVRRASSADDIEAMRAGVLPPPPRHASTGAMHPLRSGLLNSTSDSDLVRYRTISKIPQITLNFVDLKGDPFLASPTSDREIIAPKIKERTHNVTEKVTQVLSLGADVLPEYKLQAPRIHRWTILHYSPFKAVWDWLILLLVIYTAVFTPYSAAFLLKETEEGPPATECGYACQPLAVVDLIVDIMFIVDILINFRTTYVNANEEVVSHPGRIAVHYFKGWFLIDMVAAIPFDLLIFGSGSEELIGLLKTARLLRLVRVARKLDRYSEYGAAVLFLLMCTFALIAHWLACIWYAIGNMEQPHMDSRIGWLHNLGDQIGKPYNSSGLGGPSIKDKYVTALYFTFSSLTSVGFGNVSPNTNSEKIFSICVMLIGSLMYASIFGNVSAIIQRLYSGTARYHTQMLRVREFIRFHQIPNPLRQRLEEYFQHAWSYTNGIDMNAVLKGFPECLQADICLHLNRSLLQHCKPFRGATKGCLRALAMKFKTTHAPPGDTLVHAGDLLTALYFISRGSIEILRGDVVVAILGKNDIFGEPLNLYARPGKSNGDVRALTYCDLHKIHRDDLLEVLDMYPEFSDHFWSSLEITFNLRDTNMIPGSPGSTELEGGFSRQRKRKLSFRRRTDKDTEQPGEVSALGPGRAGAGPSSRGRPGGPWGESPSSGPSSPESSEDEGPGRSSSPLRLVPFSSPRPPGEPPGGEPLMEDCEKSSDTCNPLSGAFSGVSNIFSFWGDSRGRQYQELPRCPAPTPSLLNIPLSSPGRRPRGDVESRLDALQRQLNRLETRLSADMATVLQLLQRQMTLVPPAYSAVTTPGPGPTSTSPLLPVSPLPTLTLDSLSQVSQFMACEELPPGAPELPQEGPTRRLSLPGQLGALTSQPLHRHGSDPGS

T2 sequence (P31751 whole entry): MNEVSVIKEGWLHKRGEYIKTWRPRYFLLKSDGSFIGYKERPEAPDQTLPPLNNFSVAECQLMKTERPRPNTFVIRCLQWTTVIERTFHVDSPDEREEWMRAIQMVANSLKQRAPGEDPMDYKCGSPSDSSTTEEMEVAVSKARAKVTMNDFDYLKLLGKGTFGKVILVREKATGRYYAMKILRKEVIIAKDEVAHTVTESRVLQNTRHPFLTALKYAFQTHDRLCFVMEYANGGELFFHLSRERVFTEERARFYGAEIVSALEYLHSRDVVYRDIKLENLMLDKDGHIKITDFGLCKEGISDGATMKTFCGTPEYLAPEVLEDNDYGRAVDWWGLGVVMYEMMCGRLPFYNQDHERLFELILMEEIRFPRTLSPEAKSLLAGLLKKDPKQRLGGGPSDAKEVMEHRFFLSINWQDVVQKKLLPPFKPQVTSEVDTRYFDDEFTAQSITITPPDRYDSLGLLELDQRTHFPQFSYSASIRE

For `c1ccc(-c2cc3cnccc3nc2-c2ccc(CN3CCC(c4n[nH]c(-c5ccccn5)n4)CC3)cc2)cc1`, the concentration for half-maximal inhibition (IC50) in [1] was 0.021 µM; in data set [2] it was greater than 50 µM; in [3], 0.21 µM; in data set [4] it was greater than 50 µM; in [5] it was 2.68 µM; in data set [6], 0.0074 µM. The compound also gave an IC50 in [7] greater than 50 µM.

Regarding `c1ccc(-c2cc3cccnc3nc2-c2ccc(CN3CCC(c4cc(-c5cccnc5)[nH]n4)CC3)cc2)cc1`, the IC50 is greater than 50 µM in data set [2]; 0.9 µM in data set [3]; greater than 50 µM in data set [4]; 0.25 µM in data set [6]; greater than 50 µM in [7].

As to `c1ccc(-c2cc3cccnc3nc2-c2ccc(CN3CCC(c4cc(-c5ccncc5)[nH]n4)CC3)cc2)cc1`, the IC50 is 0.369 µM in data set [1]; greater than 50 µM in [2]; 0.26 µM in data set [3]; greater than 50 µM in [4]; 1.45 µM in data set [5]; 0.12 µM in [6]. In [7], this compound returned an IC50 greater than 50 µM.

Take `O=c1ccc(-c2cc(C3CCN(Cc4ccc(-c5nc6ncccc6cc5-c5ccccc5)cc4)CC3)n[nH]2)c[nH]1`: the IC50 in data set [1] is 0.132 µM; in [2], greater than 50 µM; in data set [3], 0.083 µM; in data set [4], greater than 50 µM; in data set [5] it was 0.613 µM; in [6] it was 0.034 µM. The same compound returned an IC50 in [7] greater than 50 µM.

Take `CCN(CC)CCNC(=O)c1ccc2nc(-c3ccccc3)c(-c3ccc(CN4CCC(n5c(=O)[nH]c6ccccc65)CC4)cc3)nc2c1`: the IC50 in data set [1] stood at 0.527 µM; in [5], 0.73 µM.

Regarding `c1ccc(-c2nc3ccccc3nc2-c2ccc(CN3CCC(c4cc(-c5ccncc5)[nH]n4)CC3)cc2)cc1`, the figures for the IC50 in data set [3], in [8] and in data set [6] were 1.07 µM, 11.3 µM and 0.075 µM, respectively. In [9], the logD was 2.71.

With `c1ccc(-c2cc(C3CCN(Cc4ccc(-c5nc6ncccc6cc5-c5ccccc5)cc4)CC3)n[nH]2)cc1`, the IC50 in data set [2] was greater than 50 µM; in data set [3], 1.6 µM; in data set [4], greater than 50 µM; in data set [6] it was 0.47 µM; in data set [7] it was greater than 50 µM.

In the case of `c1ccc(-c2cc3ncccc3nc2-c2ccc(CN3CCC(c4n[nH]c(-c5ccccn5)n4)CC3)cc2)cc1`, the IC50 is 0.03 µM in data set [1]; greater than 50 µM in [2]; 0.07 µM in data set [3]; greater than 50 µM in data set [4]; 1.48 µM in data set [5]; 0.0056 µM in data set [6]. Further, the IC50 in data set [7] is greater than 50 µM.

In the case of `O=C1N=CC=C2N=C(c3ccc(CN4CCC(c5n[nH]c(-c6ccccn6)n5)CC4)cc3)C(c3ccccc3)=CC12` (configuration not stated), the Activity is listed as 100% in the data set on Mus musculus [10]; 21% with Mus musculus [12]; 91% in the data set with Mus musculus [15]; 86% with Mus musculus [19]; 62% in the data set on Mus musculus [24]; 41% in the data set with Mus musculus [25]. Also, the concentration at 10 h in data set [11] came out at 13 µM. In data set [13], this compound displayed a logP of 3.51. In addition, the inhibition in vivo at 50 mg/kg was 75% in the data set with Mus musculus [14], 54% with Mus musculus [17], 95% with Mus musculus [20] and 80% with Mus musculus [23]. Also, the IC50 in data set [1] was 0.016 µM; in data set [2] it was greater than 50 µM; in data set [3], 0.042 µM; in [4] it was greater than 50 µM; in [8] it was 1.9 µM; in data set [5] it was 0.266 µM. Besides, the IC50 in [6] was 0.0035 µM; in [7], greater than 50 µM; in [26] it was 5.61 µM. Further, the concentration at 24 h in data set [16] was determined as 0.7 µM. In the data set with A2780, the outcome was Active. This compound also showed a half-life in [18] of 3.8 h. Also, the concentration at 16 h in [21] was 2.6 µM. Also, in the data set filed under Homo sapiens, the fraction unbound was 0.027. For the same compound, the clearance in data set [22] was 0.276 L/h/kg.

Regarding `c1ccc(-c2cc3cccnc3nc2-c2ccc(CN3CCC(c4cc(-c5ccccn5)[nH]n4)CC3)cc2)cc1`, the IC50 is 0.149 µM in data set [1]; greater than 50 µM in data set [2]; 0.28 µM in [3]; greater than 50 µM in [4]; 0.995 µM in [5]; 0.044 µM in [6]. The IC50 in data set [7] was greater than 50 µM.

For `c1ccc(-c2cc3ccncc3nc2-c2ccc(CN3CCC(c4n[nH]c(-c5ccccn5)n4)CC3)cc2)cc1`, the IC50 in [1] is 0.031 µM; in data set [2], greater than 50 µM; in data set [3] it was 0.16 µM; in [4] it was greater than 50 µM; in [5] it was 0.981 µM; in data set [6], 0.021 µM. The compound also registered an IC50 in [7] greater than 50 µM.

`c1ccc(-c2cc3cccnc3nc2-c2ccc(CN3CCC(c4n[nH]c(-c5ccccn5)n4)CC3)cc2)cc1`: the IC50 in data set [1] is 0.083 µM; in data set [2], greater than 50 µM; in data set [3] it was 0.22 µM; in data set [4] it was greater than 50 µM; in [5] it was 1.08 µM; in data set [6], 0.045 µM. In [7], this compound returned an IC50 greater than 50 µM.

Values taken from ChEMBL document CHEMBL1143097, “Allosteric inhibitors of Akt1 and Akt2: a naphthyridinone with efficacy in an A2780 tumor xenograft model” (Bioorg Med Chem Lett, 2008).
